The subject of this experiment is FAM-Apt (DNA, aptamer) ATCACGTGTTGTCTCTCTGTGTCTCGTG
As to the kind of experiment: FRET strand-displacement assay (fluorescence recovery). The note with it: 20 mM Mg-acetate, 100 mM Na-acetate; Tris-acetate pH 8.5, 25 °C; 3'-RTQ1 cDNA CAGAGAGAC not displaced; tested at 1 µM.

With `C[C@H]1CCCC(=O)CCC/C=C/c2cc(O)cc(O)c2C(=O)O1`, the binding result is on record as “no”.

Regarding `C[C@@H]1Cc2c(Cl)cc(C(=O)N[C@@H](Cc3ccccc3)C(=O)O)c(O)c2C(=O)O1`, the binding result is “no”.
